Measurements from article PMC11320730, “5-Methoxy-2-aminoindane Reverses Diet-Induced Obesity and Improves Metabolic Parameters in Mice: A Potential New Class of Antiobesity Therapeutics” (ACS Pharmacology & Translational Science, 2024).

What was measured:
C57Bl/6 mice [1] = experiment: Acute single oral dose of MEAI: drug tolerability; assay type: in vivo; conditions: lean male mice
Description: (§1) Male 6-week-old C57Bl/6 mice (Harlan, Israel) were maintained in standard conditions under a 12 h light/dark cycle and fed ad libitum. A total of 32 animals were divided into four experimental groups (N = 8 mice per group) receiving single doses of 40, 60, or 100 mg/kg of MEAI or vehicle (sterile water), which was administered via oral gavage 2 h prior to the dark phase. The animals were monitored for 48 h postdose for drug tolerability, food and water intakes, and activity and metabolic parameters. At the end of the experiment, the animals were euthanized, and tissues (brain, liver, fat, and kidney) and blood were collected and stored in a frozen state for future analyses.

C57Bl/6 mice [2] = experiment: Acute effect of MEAI on food and water intake and metabolic parameters (Promethion); assay type: in vivo; conditions: lean male mice, vs vehicle
Description: as §1
The metabolic profiles and food and water intakes of the mice were assessed using the Promethion High-Definition Behavioral Phenotyping System (Sable Instruments, Inc., Las Vegas, Nevada, USA). MetaScreen software version 2.2.18.0 was used for data acquisition and instrument control. Raw data were processed using ExpeData version 1.8.4 with an analysis script detailing all aspects of the data transformation. Mice with free access to food and water, housed at temperatures of (22–23 °C), were subjected to a standard 12 h light/12 h dark cycle, which consisted of a 48 h acclimation period followed by 24 h of sampling after dosing. Respiratory gases were measured using the GA-3 gas analyzer (Sable Systems, Inc., Las Vegas, Nevada, USA) employing a pull-mode negative-pressure system. Airflow was measured and controlled by an FR-8 instrument (Sable Systems, Inc., Las Vegas, Nevada, USA) at a flow rate of 2000 mL/min. Water vapor was continuously measured, and its dilution effect on O2 and CO2 was mathematically compensated. Respiratory exchange rate (RER) was calculated as the ratio of CO2 produced (VCO2) to O2 consumed (VO2) using eq 1): [drawing 1] 1
Total energy expenditure (TEE) was calculated using VO2 and RER, according to eq 2: [drawing 2] 2
Fat oxidation (FO) and carbohydrate oxidation (CHO) were calculated using VO2 and VCO2 based on eqs 3 and 4, respectively: [drawing 3] 3 [drawing 4] 4
Energy balance and energy flux were derived from eqs 5 and 6: [drawing 5] 5 [drawing 6] 6

C57Bl/6 mice [3] = experiment: Sucrose preference test; assay type: in vivo; conditions: 40 mg/kg, single dose
Description: Thirteen-week-old male C57BL/6 mice, maintained on a STD and housed individually, were habituated to two water bottles in their home cage for 48 h prior to the test. Baseline intake was measured by weighing the bottles. On the test day (day 1), 2 h before the onset of the dark phase, fresh water and a 1.5% sucrose solution were added to the bottles and mice were subsequently treated orally with MEAI (40 mg/kg, N = 8) or sterile water (N = 8). The mice were allowed to freely drink from either bottle for 24 h, after which the bottles were weighed to measure consumption. The study was repeated for an additional day (day 2), with the bottles switched in position (in the cage) to account for side preference. The sucrose and water intake over the 2 days were averaged, and the sucrose preference index was calculated as the average consumed sucrose solution divided by the average volume of total consumed liquid (average water plus average sucrose solution).

DIO C57BL/6 mice = experiment: Wheel running and locomotor activity in DIO mice; assay type: in vivo; conditions: 40 mg/kg/day
Description: Male C57BL/6 mice were used to establish DIO by feeding them a high-fat diet (HFD; 60% cal/L fat, 20% cal/L protein, and 20% cal/L carbohydrates; Research Diet, D12492) for 18 weeks. After this period, mice were treated with either vehicle (sterile water, N = 8) or MEAI (N = 11) daily for 28 days by gavage at a dose of 40 mg/kg/day. Age-matched control mice (N = 10) on a standard diet (STD; 14% kcal fat, 24% kcal protein, 62% kcal carbohydrates; NIH-31 rodent diet) received vehicle daily. The body weight of all mice was monitored daily, and total body fat and lean mass were determined by EchoMRI-100H (Echo Medical Systems LLC, Houston, Texas, USA). On day 29, at the end of the experimental period, mice were euthanized by a cervical dislocation under anesthesia. The kidneys, brain, liver, and fat pads were removed and weighed, and samples were either snap-frozen or fixed in buffered 4% formalin. Trunk blood was collected to determine the biochemical parameters.
The activity energy expenditure was calculated based on eq 7: [drawing 7] 7
The assessment of wheel running and locomotor activity was performed by using the Promethion High-Definition Behavioral Phenotyping System (Sable Instruments, Inc., Las Vegas, Nevada, USA). Wheel revolutions were measured with a monitor that recorded voluntary wheel running activity, and locomotor activity was quantified using disruptions of infrared XYZ beam arrays with a beam spacing of 0.25 cm. Pedestrian locomotion represented the sum of all directed ambulatory locomotion within the beam break system, using a speed cutoff of 1 cm/s. Total distance represented the sum of all distances traveled within the beam break system, not including any distance run on the wheel in meters (m); this included fine movements (such as grooming and scratching).

5-HT2B receptor = test system: 5-HT2B receptor; design: method as in PMID 29458138; conditions: cited from earlier work
5-HT2B [4] = biological target: T1, 5-HT2B (Homo sapiens, UniProt P41595); experiment: 5-HT2B calcium influx assay (agonist) in BA/F3 cells; assay type: cell-based; design: host or cells: BA/F3 cells
T1 sequence (P41595 whole entry): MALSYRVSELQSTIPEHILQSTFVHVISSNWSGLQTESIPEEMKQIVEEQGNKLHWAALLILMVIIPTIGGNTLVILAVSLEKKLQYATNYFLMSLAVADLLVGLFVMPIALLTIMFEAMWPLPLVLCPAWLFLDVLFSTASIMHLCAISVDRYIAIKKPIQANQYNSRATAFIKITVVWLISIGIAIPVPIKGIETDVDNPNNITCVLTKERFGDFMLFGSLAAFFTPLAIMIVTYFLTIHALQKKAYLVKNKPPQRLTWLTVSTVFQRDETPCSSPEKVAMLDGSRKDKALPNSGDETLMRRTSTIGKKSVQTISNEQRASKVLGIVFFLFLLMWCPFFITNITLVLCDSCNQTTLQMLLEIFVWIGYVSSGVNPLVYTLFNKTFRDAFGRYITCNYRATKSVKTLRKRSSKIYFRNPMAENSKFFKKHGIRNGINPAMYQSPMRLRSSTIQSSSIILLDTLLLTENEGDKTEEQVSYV

5-HT2B [5] = biological target: T1, 5-HT2B; experiment: Ligand binding assay (Eurofins); design: Eurofins (contract screening service); conditions: read-out: inhibitory activity (% inhibition of the binding of a specific ligand)
Description: MEAI at 10 μM was tested in ligand binding assays at Eurofins Inc., as described previously.[20] Compound binding was calculated as a % inhibition of the binding of a ligand specific for each target. Results showing an inhibition or stimulation higher than 50% are considered to represent significant effects of MEAI. In each experiment, and if applicable, the respective reference compound was tested concurrently with MEAI and the data were compared with historical values determined at Eurofins. The experiment was accepted in accordance with the Eurofins validation Standard Operating Procedure.

[6] = vs HFD-vehicle, did not surpass STD-vehicle

SMILES: COc1ccc2c(c1)CC(N)C2.Cl (centres unmarked) [MEAI, 2,3-Dihydro-5-methoxy-1H-inden-2-amine hydrochloride]
- deaths after dosing (C57Bl/6 mice [1]; single oral dose 100 mg/kg, within a few hours): two subjects in the 100 mg/kg group died
- drug tolerability (C57Bl/6 mice [1]; single oral dose, 40 and 60 mg/kg): well-tolerated
- hourly average energy expenditure (TEE/h) (C57Bl/6 mice [2]; single oral dose 40, 60 or 100 mg/kg, across 24 h): significant dose-dependent increase
- feeding patterns (food intake) (C57Bl/6 mice [2]; single oral dose 40, 60 or 100 mg/kg, dark and light phases): did not reach statistical significance
- water consumption (C57Bl/6 mice [2]; single oral dose 40, 60 or 100 mg/kg): no notable changes
- respiratory exchange ratio (RER) (C57Bl/6 mice [2]; single oral dose 60 and 100 mg/kg, light phase): markedly increased
- carbohydrate oxidation (CHO) rate (C57Bl/6 mice [2]; single oral dose, higher doses): elevations
- fat oxidation (FO) rate (C57Bl/6 mice [2]; single oral dose, higher doses): elevations
- total daily TEE (C57Bl/6 mice [2]; single oral dose, particularly at 60 mg/kg): significant elevation
- carbon dioxide production (VCO2) (C57Bl/6 mice [2]; single oral dose): increases
- energy balance (C57Bl/6 mice [2]; single oral dose): did not lead to immediate changes
- oxygen consumption (VO2) (C57Bl/6 mice [2]; single oral dose): increases
- preference for sucrose solution (C57Bl/6 mice [3]; 1.5% sucrose, most evident during initial 24 h, vs vehicle): significantly reduced
- water intake levels (C57Bl/6 mice [3]; sucrose preference test): without any accompanying decrease
- voluntary wheel running (DIO C57BL/6 mice): increased capability to run on the voluntary wheel
- wheel running speed (DIO C57BL/6 mice): comparable to the STD-vehicle-treated group
- interaction times with food and water dispensers (time budget) (DIO C57BL/6 mice; Results section): extended
- voluntary ambulatory behaviors (pedestrian activity and grooming) (DIO C57BL/6 mice; pronounced during nocturnal phase): significantly boosted
- energy expenditure associated with activity levels (DIO C57BL/6 mice; trend toward an increase): did not reach statistical significance
- pedestrian activity (DIO C57BL/6 mice; [6]): increased
- pedestrian speed (DIO C57BL/6 mice; [6]): increased
- total distance traveled (DIO C57BL/6 mice; [6]): increased
- binding inhibition (5-HT2B receptor): modest binding inhibition
- Emax (5-HT2B [4]; BaF3, read-out: maximum response, calcium flux (percent of control response to serotonin at 0.25 μM), cytosolic Ca2+ mobilization, agonist mode): 18.6%
- agonist activity at the 5-HT2B receptor (5-HT2B [4]; calcium flux): did not act as an agonist
- inhibition at 10 µM (5-HT2B [5]): > 50%
